Results reported in PMC8602566 (Frontiers in Oncology, 2021).
Like-named read-outs stand apart in the source and are kept apart here.

Key:
[1] = system: Human lung cancer cell line A549; test: MTT cell viability assay, A549; assay type: cell-based; conditions: A549, MTT, 72 h, read-out: IC50 antiproliferative activity A549
Experimental: (§1) Cell viability was measured using the 3-(4,5-dimethylthiazol-2-yl)-2,5-diphenyltetrazolium bromide (MTT) assay and was expressed as a ratio to the absorbance value at 570 nm of the control cells.

[2] = system: Human umbilical vein endothelial cells HUVEC; test: MTT cell viability assay, HUVEC; assay type: cell-based
Experimental: as §1

HDAC10 = HDAC10 (Homo sapiens, UniProt Q969S8); test: HDACs inhibition assay, HDAC10
Experimental: (§2) The inhibition assays for HDACs were carried out according to standard protocols. […] The reaction was stopped by the addition of 45 μl of 100 mM HEPES (pH 7.5) and 0.08% sodium dodecyl sulfate (SDS). The substrate and the product were then separated electrophoretically using a LabChip 3000 system (Caliper Life Sciences, Hopkinton, MA) with blue laser excitation and green fluorescence detection.

[3] = Plasma and brain distribution study; assay type: in vivo; conditions: mice, single administration, i.v. 5 mg/kg or p.o. 10 mg/kg
From the text: Discovery of drugs for the treatment of GBM encounters formidable challenges to their ability to cross the blood–brain barrier (BBB) ([31]). Thus, we further investigated the distribution of DMC-HA to identify whether it has the ability to cross the BBB. […] In addition, stable and durable distribution of DMC-HA in the brain was observed after p.o. administration. Nevertheless, optimization for the balance among potency, selectivity, metabolic stability, and brain permeability in a single molecule was challenging. These preliminary results provide valuable information for further structure optimization of DMC-HA and a guidance for its following in vivo studies.
Figure 5 Concentrations of DMC-HA in plasma and brain over time following a single administration in mice. Left, i.v. 5 mg/kg; right, p.o. 10 mg/kg.

U87 tumor xenograft = conditions: nude mice, 20 mg/kg once daily
From the text: Six-week-old BALB/c nude mice were purchased from Shanghai Experimental Animal Center of Chinese Academy of Science (Shanghai, China). All animal protocols were implemented according to the guidelines of the Association for Assessment and Accreditation of Laboratory Animal Care. U87 cells (3 × 10^6) were subcutaneously implanted into the right flank of mice. After 6 days of tumor growth, tumors grew to approximately 100 mm^3, and mice were randomly divided into three groups with nine animals in each group. […] The control group was intraperitoneally injected an equal volume of DMSO. Body weights and tumor volumes were measured every 2 days. After treatment, all of the mice were sacrificed, and the tumors were harvested, weighted, and photographed. The tumor volume was calculated according the formula: tumor volume = (length × width^2)/2.
U87 cells were subcutaneously inoculated into the right flank of mice.

[4] = system: Human liver cancer cell line HepG2; test: MTT cell viability assay, HepG2; assay type: cell-based; conditions: HepG2, MTT, 72 h, read-out: IC50 antiproliferative activity HepG2
Experimental: as §1

all eight cell lines = test: Antiproliferative activity, panel of eight cancer cell lines (summary); assay type: cell-based; conditions: Homo sapiens; summary over the eight cancer cell lines of Table 2; read-out: IC50 values against all eight cell lines
Experimental: Cells (5 × 10^4) were seeded into 96-well plates and exposed to vehicle (PBS) or different concentrations of compounds for 72 h. Cell viability was measured using the 3-(4,5-dimethylthiazol-2-yl)-2,5-diphenyltetrazolium bromide (MTT) assay and was expressed as a ratio to the absorbance value at 570 nm of the control cells.
As DMC-HA was identified as a potent novel inhibitor for HDACs, its antiproliferative activities on a panel of cancer cell lines and normal cells were evaluated, including four glioma cell lines, and the results are shown in Table 2. Vorinostat and curcumin were also tested as positive controls. […].

U87 cells = test: LDH release; assay type: cell-based, Human; conditions: increasing concentrations, 48 h
HDAC6 = HDAC6 (Homo sapiens, UniProt Q9UBN7); test: HDACs inhibition assay, HDAC6
Experimental: as §2

[5] = Pharmacokinetic study in mice; assay type: in vivo, SD mice; conditions: plasma; for Tmax: 10 mg/kg
Experimental: The animal studies were approved by the Institutional Animal Care and Used Committee. The pharmacokinetic study of DMC-HA was carried out with female SD mice. The compound (2.0 mM) was suspended in DMSO (10%) and Tween 80 (10%) in PBS (80%). A single dose of 1 mg/kg was administrated by intravenous injection (n = 3 mice), followed by blood collection via retro-orbital bleeding at 0.25, 0.5, 2.0, 4.0, 8.0, 12.0, and 24 h. Whole blood samples were added to a tube containing ethylenediaminetetraacetic acid (EDTA) and centrifuged. Plasma was collected and stored at −20°C. Compound standards were prepared with pooled plasma samples. Fifty microliters of thawed plasma and standards were added into wells of Ostro Pass-Through Sample Preparation Plate (Waters) for solid phase extraction. Acetonitrile (150 μl) containing internal standard was added and mixed by pipette. Next, clear sample solution was eluted by positive pressure processor under 60 psi for 5 min. The sample solution can be used directly for LC-MS/MS analysis.
The preliminary in vivo pharmacokinetic study for DMC-HA was performed in mice. SD mice were intravenously injected with 1 mg/kg DMC-HA or orally administrated with 10 mg/kg DMC-HA. Plasma samples were collected and analyzed with LC-MS/MS.

HDAC3 = HDAC3 (Homo sapiens, UniProt O15379); test: HDACs inhibition assay, HDAC3
Experimental: as §2

SIRT1 = SIRT1 (Homo sapiens, UniProt Q96EB6); test: HDACs inhibition assay, SIRT1
Experimental: as §2

HDAC11 = HDAC11 (Homo sapiens, UniProt Q96DB2); test: HDACs inhibition assay, HDAC11
Experimental: as §2

[6] = system: Human leukemia cell line K562; test: MTT cell viability assay, K562; assay type: cell-based; conditions: K562, MTT, 72 h, read-out: IC50 antiproliferative activity K562
Experimental: as §1

[7] = system: Human glioma cell line SHG44; test: MTT cell viability assay, SHG44; assay type: cell-based; conditions: SHG-44, MTT, 72 h, read-out: IC50 antiproliferative activity SHG44
Experimental: as §1

HDAC4 = HDAC4 (Homo sapiens, UniProt P56524); test: HDACs inhibition assay, HDAC4
Experimental: as §2

[8] = female, SD, mouse, iv, i.v. 1 mg/kg
[9] = female, SD, mouse, po, p.o. 10 mg/kg

Sequence of SIRT1 (Q96EB6 whole entry): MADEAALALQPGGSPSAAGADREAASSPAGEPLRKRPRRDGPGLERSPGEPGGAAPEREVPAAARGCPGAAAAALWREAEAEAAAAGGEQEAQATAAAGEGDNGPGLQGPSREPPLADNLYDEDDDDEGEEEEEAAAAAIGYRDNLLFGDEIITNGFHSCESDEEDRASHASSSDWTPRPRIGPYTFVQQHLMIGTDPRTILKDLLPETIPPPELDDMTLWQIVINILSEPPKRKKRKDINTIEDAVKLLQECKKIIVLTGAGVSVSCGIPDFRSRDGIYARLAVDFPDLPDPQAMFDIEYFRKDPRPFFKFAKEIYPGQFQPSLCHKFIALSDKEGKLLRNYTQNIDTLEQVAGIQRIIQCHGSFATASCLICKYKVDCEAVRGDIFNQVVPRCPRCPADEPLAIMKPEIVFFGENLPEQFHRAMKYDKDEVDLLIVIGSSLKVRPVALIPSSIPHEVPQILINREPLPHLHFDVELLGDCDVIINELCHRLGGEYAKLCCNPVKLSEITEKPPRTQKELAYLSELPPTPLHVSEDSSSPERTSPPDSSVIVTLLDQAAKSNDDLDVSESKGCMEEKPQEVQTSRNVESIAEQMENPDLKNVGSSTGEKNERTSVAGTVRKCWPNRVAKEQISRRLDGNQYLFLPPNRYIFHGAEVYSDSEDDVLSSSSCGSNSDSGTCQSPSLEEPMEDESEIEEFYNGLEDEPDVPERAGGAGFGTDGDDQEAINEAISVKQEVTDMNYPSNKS
Sequence of HDAC10 (Q969S8 whole entry): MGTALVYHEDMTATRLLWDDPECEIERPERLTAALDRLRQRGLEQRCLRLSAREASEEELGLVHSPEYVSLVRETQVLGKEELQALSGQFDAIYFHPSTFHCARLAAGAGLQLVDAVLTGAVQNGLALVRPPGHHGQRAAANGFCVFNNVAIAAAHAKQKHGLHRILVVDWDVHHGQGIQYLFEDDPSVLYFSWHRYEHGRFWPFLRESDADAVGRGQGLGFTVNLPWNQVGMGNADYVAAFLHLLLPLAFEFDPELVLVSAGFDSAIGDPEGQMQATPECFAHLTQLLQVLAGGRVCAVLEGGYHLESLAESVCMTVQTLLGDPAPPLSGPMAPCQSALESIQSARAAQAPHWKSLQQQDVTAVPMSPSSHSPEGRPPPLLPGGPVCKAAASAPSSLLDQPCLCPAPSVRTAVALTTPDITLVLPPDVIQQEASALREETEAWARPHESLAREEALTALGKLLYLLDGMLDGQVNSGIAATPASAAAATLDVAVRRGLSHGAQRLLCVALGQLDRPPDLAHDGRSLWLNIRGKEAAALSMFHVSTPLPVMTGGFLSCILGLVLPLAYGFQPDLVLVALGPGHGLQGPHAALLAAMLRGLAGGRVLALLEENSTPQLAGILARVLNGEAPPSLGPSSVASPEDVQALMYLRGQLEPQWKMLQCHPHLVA
Sequence of HDAC11 (Q96DB2 whole entry): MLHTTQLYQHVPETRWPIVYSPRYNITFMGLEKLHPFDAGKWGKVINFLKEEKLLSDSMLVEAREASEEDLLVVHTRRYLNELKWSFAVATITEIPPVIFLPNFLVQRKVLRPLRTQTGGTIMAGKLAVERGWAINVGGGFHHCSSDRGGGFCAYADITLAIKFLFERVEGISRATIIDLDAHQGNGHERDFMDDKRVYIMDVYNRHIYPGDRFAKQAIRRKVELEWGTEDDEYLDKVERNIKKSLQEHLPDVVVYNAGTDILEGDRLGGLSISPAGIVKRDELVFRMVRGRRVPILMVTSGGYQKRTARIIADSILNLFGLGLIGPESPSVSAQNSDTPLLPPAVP
Sequence of HDAC4 (P56524 whole entry): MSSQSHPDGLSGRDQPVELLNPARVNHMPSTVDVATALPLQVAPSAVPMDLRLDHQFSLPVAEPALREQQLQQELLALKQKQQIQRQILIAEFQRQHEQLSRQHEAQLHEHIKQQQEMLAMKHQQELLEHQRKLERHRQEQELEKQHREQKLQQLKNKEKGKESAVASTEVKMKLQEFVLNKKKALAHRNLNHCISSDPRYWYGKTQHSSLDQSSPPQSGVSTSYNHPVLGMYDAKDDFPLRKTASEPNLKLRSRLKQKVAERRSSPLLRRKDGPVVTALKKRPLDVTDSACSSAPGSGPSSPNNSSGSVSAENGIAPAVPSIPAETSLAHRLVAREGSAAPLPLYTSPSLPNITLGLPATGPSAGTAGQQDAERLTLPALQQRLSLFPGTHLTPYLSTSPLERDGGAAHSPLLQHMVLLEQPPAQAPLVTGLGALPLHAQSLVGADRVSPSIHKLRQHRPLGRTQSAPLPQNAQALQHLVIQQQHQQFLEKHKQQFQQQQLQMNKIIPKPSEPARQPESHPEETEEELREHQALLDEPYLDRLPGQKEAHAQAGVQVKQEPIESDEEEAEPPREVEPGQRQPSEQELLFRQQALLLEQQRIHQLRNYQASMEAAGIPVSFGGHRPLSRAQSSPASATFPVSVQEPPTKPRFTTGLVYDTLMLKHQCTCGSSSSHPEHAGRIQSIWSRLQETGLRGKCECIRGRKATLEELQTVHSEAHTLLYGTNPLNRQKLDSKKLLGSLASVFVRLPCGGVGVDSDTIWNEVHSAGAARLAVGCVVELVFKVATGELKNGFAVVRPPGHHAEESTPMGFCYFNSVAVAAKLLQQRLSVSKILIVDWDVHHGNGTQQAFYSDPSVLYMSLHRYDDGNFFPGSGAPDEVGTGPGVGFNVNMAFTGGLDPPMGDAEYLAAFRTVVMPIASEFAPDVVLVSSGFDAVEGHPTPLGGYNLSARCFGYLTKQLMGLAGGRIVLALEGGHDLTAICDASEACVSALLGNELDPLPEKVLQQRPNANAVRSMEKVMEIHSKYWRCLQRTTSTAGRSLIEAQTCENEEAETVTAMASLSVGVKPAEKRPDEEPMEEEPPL
Sequence of HDAC6 (Q9UBN7 whole entry): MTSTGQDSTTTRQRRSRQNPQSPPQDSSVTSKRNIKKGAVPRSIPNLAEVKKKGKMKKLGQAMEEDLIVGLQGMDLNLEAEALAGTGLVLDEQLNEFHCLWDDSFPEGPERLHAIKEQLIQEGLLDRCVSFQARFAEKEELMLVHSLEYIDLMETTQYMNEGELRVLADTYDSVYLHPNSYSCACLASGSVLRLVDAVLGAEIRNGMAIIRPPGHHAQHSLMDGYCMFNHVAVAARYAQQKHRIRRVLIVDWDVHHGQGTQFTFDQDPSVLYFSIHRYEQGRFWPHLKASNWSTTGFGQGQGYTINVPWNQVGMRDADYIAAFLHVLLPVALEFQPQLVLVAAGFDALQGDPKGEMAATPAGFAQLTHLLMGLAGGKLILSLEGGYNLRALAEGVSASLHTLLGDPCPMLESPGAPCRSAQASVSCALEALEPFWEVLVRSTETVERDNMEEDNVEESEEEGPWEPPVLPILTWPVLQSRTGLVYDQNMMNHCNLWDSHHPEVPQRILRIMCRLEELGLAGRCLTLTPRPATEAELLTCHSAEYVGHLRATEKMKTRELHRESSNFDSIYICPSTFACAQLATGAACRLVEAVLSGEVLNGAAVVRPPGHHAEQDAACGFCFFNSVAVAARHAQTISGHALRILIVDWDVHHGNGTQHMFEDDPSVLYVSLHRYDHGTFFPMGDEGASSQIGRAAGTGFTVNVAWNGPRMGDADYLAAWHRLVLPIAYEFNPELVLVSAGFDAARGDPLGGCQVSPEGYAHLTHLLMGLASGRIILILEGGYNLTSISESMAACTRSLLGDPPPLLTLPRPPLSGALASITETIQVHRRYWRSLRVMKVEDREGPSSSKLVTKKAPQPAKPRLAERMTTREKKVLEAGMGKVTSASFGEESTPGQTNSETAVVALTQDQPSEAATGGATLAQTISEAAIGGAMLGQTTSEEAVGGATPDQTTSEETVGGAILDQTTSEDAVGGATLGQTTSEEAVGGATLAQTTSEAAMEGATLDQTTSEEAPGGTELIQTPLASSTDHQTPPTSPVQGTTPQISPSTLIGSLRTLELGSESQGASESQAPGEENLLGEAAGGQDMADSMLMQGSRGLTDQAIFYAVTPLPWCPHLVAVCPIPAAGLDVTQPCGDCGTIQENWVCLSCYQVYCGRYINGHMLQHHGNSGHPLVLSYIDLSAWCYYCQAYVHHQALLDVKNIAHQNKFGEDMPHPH
Sequence of HDAC3 (O15379 whole entry): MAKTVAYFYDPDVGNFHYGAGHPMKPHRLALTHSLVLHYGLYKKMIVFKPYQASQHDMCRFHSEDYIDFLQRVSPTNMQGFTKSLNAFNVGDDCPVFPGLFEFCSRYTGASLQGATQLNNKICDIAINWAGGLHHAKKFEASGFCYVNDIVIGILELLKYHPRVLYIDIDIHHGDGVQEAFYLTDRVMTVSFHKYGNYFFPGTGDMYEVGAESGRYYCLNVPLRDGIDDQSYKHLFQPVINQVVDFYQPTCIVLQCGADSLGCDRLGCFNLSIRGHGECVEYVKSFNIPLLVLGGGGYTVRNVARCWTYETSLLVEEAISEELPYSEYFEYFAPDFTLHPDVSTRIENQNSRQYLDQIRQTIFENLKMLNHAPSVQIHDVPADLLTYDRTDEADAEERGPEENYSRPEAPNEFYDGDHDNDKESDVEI
Sequence of HDAC3 (Q9Y618 395-489 partner limits assumed): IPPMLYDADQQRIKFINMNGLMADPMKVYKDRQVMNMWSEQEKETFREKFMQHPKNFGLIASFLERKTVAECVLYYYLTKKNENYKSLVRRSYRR

COc1cc(/C=C/C(=O)CC(=O)/C=C/c2ccc(/C=C/C(=O)NO)cc2)ccc1O [DMC-HA]
IC50 [1]: 5.33 ± 0.93 µM | IC50 ([2]; Homo sapiens, HUVEC, MTT, 72 h, normal cells, read-out: IC50 HUVEC): 27.4 ± 3.94 µM | toxicity to human umbilical vein endothelial cells (HUVECs) ([2]; in words): low toxicity | IC50 (HDAC10): 8.39 µM | ability to cross the BBB [3]: can indeed penetrate the BBB | Kp ([3]; mouse, brain and plasma, other: intravenous and oral (i.v. and p.o. arms), over time, read-out: brain-to-plasma ratios): 0.08 to 0.23 | effects on the body weight (U87 tumor xenograft): no effects on the body weight | toxicity during the administration period (U87 tumor xenograft): no observable toxicity | tumor weight (U87 tumor xenograft; compared with controls): significantly lower tumor weight | inhibition on the tumor volume (U87 tumor xenograft; oral route / intraperitoneal, vs. control): 52.1% | IC50 [4]: 4.28 ± 0.52 µM | IC50 (all eight cell lines): < 5.3 µM | LDH release / cell death (U87 cells): induces cell death in a dose-dependent manner | IC50 (HDAC6): 0.38 µM | AUC(0-inf) [5, 8]: 0.502 µg·h/mL | AUC(0-t) [5, 8]: 0.493 µg·h/mL | clearance [5, 8]: 1.8 L/h/kg | half-life [5, 8]: 3.2 h | bioavailability ([5]; female, SD, mouse, oral, p.o. 10 mg/kg vs i.v. 1 mg/kg, read-out: F (oral bioavailability)): 40.2% | Tmax ([5]; female, SD, mouse, po, p.o. 10 mg/kg, read-out: Tmax): 0.67 h | Tmax ([5]; female, SD, mouse, po, p.o. 10 mg/kg, read-out: time of peak concentration (converted)): ~0.667 h | AUC(0-inf) [5, 9]: 2.01 µg·h/mL | AUC(0-t) [5, 9]: 1.98 µg·h/mL | Cmax [5, 9]: 1.07 µg/mL | half-life [5, 9]: 4.1 h | Cl ([5]; p.o. 10 mg/kg): 8.7 L/h/kg | peak concentration ([5]; p.o. 10 mg/kg): about 1.0 μg/ml | IC50 (HDAC3): 1.67 µM | IC50 (SIRT1): > 10 µM | IC50 (HDAC11): > 10 µM | IC50 [6]: 1.95 ± 0.71 µM | IC50 [7]: 4.62 ± 0.72 µM | IC50 (HDAC4): > 10 µM
